Measurements from patent publication US12264185B2, “Stabilized BCL9 peptides for treatment of aberrant Wnt signaling” (WntRx Pharmaceuticals Inc., priority 2015, dated 2025).
Like-named read-outs stand apart in the source and are kept apart here.

How the values were obtained:
β-catenin = molecular target: T1, β-catenin (Homo sapiens, UniProt P35222); assay: HTRF binding assay; conditions: WX-024 coupled to biotin
T1 sequence (P35222 1-781): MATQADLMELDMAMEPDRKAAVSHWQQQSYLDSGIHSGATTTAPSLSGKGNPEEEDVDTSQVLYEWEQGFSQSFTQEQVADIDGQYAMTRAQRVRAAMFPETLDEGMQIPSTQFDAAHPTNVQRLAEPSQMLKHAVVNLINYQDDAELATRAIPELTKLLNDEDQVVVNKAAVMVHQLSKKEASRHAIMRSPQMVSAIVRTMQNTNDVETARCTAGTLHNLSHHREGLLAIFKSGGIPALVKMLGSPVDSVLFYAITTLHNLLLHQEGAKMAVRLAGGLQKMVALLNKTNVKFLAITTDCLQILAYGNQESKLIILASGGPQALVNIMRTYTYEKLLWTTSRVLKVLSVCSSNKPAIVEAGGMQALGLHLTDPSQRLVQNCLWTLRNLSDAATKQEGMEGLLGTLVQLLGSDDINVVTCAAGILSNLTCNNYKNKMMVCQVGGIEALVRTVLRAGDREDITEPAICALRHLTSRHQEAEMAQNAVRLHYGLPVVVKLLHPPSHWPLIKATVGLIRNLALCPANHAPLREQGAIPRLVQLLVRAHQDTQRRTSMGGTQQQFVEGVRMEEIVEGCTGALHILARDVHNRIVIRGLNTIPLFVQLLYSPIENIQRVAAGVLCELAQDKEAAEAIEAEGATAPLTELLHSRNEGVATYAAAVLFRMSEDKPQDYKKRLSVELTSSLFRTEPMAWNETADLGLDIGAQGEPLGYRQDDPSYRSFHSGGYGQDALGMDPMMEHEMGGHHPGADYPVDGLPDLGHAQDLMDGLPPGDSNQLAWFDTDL
Text: HTRF assays provide a means of assaying protein-protein interactions in a high-throughput format, as discussed in Degorce et al., Curr Chemical Genom. 3, 22-32 (2009). In an HTRF assay to measure a protein-protein interaction, binding of 2 proteins brings an HTRF donor and acceptor fluorophore into close proximity and generates the fluorescence energy transfer (FRET) signal. Each protein of the interaction is associated with the donor or the acceptor by an antibody reaction.
FIG. 6A provides a schematic to depict the basis of the HTRF assay. In the HTRF assay for β-catenin (Cisbio), β-catenin is bound by an XL665-coupled antibody (ab) against β-catenin. See Degorce (2009). β-catenin bound to an XL665-coupled antibody can interact with its binding partners, such as BCL9 or BCL9 peptides.
SA is a high-affinity binding partner to biotin and will tightly bind the SA-europium cryptate to the biotinylated stabilized polypeptides. Europium cryptate is an energy donor for an HTRF reaction. When not closely bound, there is no energy transfer between europium cryptate and XL665.
Histidine-tagged β-catenin, BCL9 peptide labeled with biotin, europium (Eu) labeled monoclonal antibody for histidine tag, and SA-XL665 were used in the HTRF assay. […] The reaction was incubated at room temperature for 1 hour and then the plate was read.

CT26 cells = assay: CT26 syngeneic mouse model of colon cancer (Balb/c); type: in vivo, mice
Protocol: The syngeneic mouse model of colon cancer using CT26 was then assessed. Male Balb/c mice were injected subcutaneously in the right flank with 5×10^4 CT26 cells each at approximately 5 weeks of age. […] Eight mice were included in each treatment group.
The whole blood was taken from each mouse. Lymphocytes were purified from the blood samples by Ficoll, and the cells were stained with fluorescent anti-CD4 antibody. Data were measured by flow cytometry.
As described above, the whole blood was taken from each mouse. Lymphocytes were purified from blood by Ficoll, and the cells were stained with fluorescent anti-CD8 antibody. Data were measured by flow cytometry.
To further assess whether WX-024 is capable of modulating a tumor microenvironment, tumor and blood samples were collected in anticoagulation tubes at the end of the study. Single cells separation was performed and then cells were stained for FACS analysis. For cell surface staining, CD45-PerCP-Cy5, CD4-FITC, CD8-PE-Cy7, and CD25-PE were used. For intranuclear staining, cells were permeabilized overnight and then stained with Foxp3-APC for 60 minutes.
The in vivo efficacy of WX-035 in treating a cancer was assessed in a syngeneic mouse model, following the procedures described in Example 5.3. Trametinib, a known MEK inhibitor, was used as a comparison. Briefly, balb/c mice were inoculated with CT26 and treatment started when tumor volume reached to about 100 mm^3. The mice were then divided into three groups and began administered with a vehicle, 40 mg/kg WX-035, or 1 mg/kg trametinib for 7 consecutive days.
At the end of the study described in Example 9.2, a tumor sample from each mouse was collected to assess the effect of WX-035 in modulating T cell activation. The FACS analysis of each tumor sample was performed following the procedure described in Example 5. A shown in FIG. 36A, treatment with WX-035 reduced the total amount of CD45^+ cells. […] Likewise, Foxp3^+ CD25^+ T cells were reduced by WX-035 treatment (FIG. 36C). […] Furthermore, by increasing the ratio of cytotoxic T cells over regulatory T cells, WX-035 may induce a microenvironment that favors an immune reaction beneficial for tumor treatment. Of note, the samples collected from this experiment were also assessed for LGR5 expression.

in vivo = conditions: male, ICR, mouse
Protocol: The tail vein was used for i.v. injections. […] Following injections, blood samples were obtained via the retro-orbital vein at 5 min, 1, 2, 4, 6, 8, 12, and 24 hours postdose. Plasma was obtained from the blood samples following mixing with sodium heparin and centrifugation.
LC analysis was done using an Agilent 100 HPLC. MS analysis was done using an AB Sciex API 4000. Calibration standards were prepared by serial dilution.
The maximum observed concentration (Cmax), terminal half-life (T1/2), total body clearance (CL), volume of distribution (Vz), area under the curve from the time of dosing to the last measurable concentration (AUC0-t), area under the curve from the time of dosing extrapolated to infinity (AUC0-inf), and bioavailability were calculated using noncompartmental analysis modules in the FDA-certified pharmacokinetic program WinNonlin Professional v5.2 (Pharsight).
Briefly, the mice were administered 1 mg/kg or 5 mg/kg intravenously, or 5 mg/kg intraperitoneally. Blood samples were collected at 15 min, 1, 2, 3, 6, 8, 12, and 24 hours post administration.

[1] = system: patient derived colon cancer cells; assay: Patient derived xenograft (PDX) colon cancer model in NOD/SCID mice; type: in vivo; conditions: 15 mg/kg i.v. daily
Text: To assess whether WX-024 is also applicable to tumor derived from human patients, a xenograft animal model inoculated with patient derived colon cancer cells was exposed to WX-024. Samples derived from four different colon cancer patients were screened for biomarkers that indicate an elevated level of canonical Wnt/β-catenin signaling. […] The samples were also stained for nuclear co-localization of BCL9 and β-catenin. […] Male NOD/SCID mice at about 5 weeks of age were […] with colon cancer cells derived from patient #8. Briefly, the selected CRC tumor samples from FIG. 28A were sliced into 3 mm^3 fragments and subcutaneously implanted onto the right flank of NOD/SCID mice. […] Each moue was given a daily intravenous administration for more than 31 days. […] At the end of the study, the mice were sacrificed and tumor samples were collected.

JAK/STAT = JAK/STAT transcription assay (SIE-bla ME-180 cell line); type: cell-based
Text: In these assays, the trifluoroacetic salt form of WX-024 was used.

[2] = 20 mg/kg, after 2 weeks of daily dosing

CC[C@H](C)[C@@H]1NC(=O)[C@@](C)(NC(=O)[C@H](CCCNC(=N)N)NC(=O)[C@H](CC(C)C)NC(=O)[C@@H](NC(=O)[C@H](CCC(N)=O)NC(=O)[C@H](CC(C)C)NC(C)=O)[C@@H](C)O)CCCC=CCCC[C@@](C)(C(=O)N[C@@H](CC(C)C)C(=O)N[C@@H](Cc2ccc3ccccc3c2)C(N)=O)NC(=O)[C@H](CCCNC(=N)N)NC(=O)[C@H](CCC(N)=O)NC1=O [WX-024, LQTLRXaa1IQRXaa2L]
Kd (β-catenin): 4.21 nM
tumor volume over time compared to vehicle (CT26 cells; 20 mg/kg i.p. daily, 14 days): substantially lower
tumor growth inhibition (TGI) (CT26 cells; 20 mg/kg i.p. daily, after 3 days of dosing): 89.2%
tumor growth inhibition (TGI) (CT26 cells; 20 mg/kg i.p. daily, after 12 days of dosing): 70.0%
active β-catenin expression in tumors (CT26 cells; 20 mg/kg, 14 days): capable of suppressing active β-catenin expression in tumors
CD4+ T cell counts in blood (CT26 cells; [2]): increase
CD8+ T cell counts in blood (CT26 cells; [2]): increase
regulatory T cells in CD4+ T cell populations in tumor (CT26 cells; 20 mg/kg, end of study): significantly reduced
half-life (in vivo): 2.4 to 2.5 h
CD44 expression in tumor samples [1]: capable of reducing CD44 expression
average tumor growth inhibition rate ([1]; after 31 days of dosing): 75.6%
IC50 (JAK/STAT; Example 4.5, read-out: IC50, JAK/STAT transcription assay): > 10000 nM
IC50 (JAK/STAT; summary, Example 6, read-out: IC50, JAK/STAT reporter assay): > 100 nM
